We go through 15 compounds from patent US8835429B2, “Pyrimidine compounds, their use as mTOR kinase and Pl3 kinase inhibitors, and their syntheses” (Wyeth LLC, priority 2009, dated 2014).

One experiment addresses PI3K-gamma (Homo sapiens, UniProt P48736). As to the kind of experiment: PI3K-gamma fluorescence polarization assay. The experiment is classed as biochemical. The conditions noted are these: 20 μM PIP2, 25 μM ATP; read-out: PI3Kγ IC50. On the procedure: The reaction buffer was 20 mM HEPES, pH 7.5, 2 mM MgCl2, 0.05% CHAPS; and 0.01% βME (added fresh). The stop/detection buffer was 100 mM HEPES, pH 7.5, 4 mM EDTA, 0.05% CHAPS; ATP 20 mM in water; PIP2 (diC8, Echelon, Salt Lake City Utah cat #P-4508) 1 mM in water (MW=856.5). The GST-GRP was 1.75 mg/mL or 1.4 mg/mL in 10% glycerol. The red detector (TAMRA) was 2.5 μM. Nunc 384-well black polypropylene fluorescent plates were used for PI3K assays.
The assay is run by placing 5 μL of diluted enzyme per well, then 5 μL of diluted compound (or 9.5 μL enzyme then 0.5 μL compound in DMSO) is added and mixed. Then, 10 μL substrate is added to start the reaction. The samples are incubated 30-60 minutes, then the reaction is stopped by adding 20 μL stop/detector mix. PI3K is diluted with reaction buffer (e.g., 5 μL or 7.5 μL PI3K into 620 μL reaction buffer), and 5 μL of diluted enzyme is used per well. A 5 μL portion of reaction buffer or of drug diluted in buffer (e.g., 4 μL/100 so final DMSO is 1% in reaction) is added to each. Pipetting up and down mixes the samples. Alternatively, the enzyme can be diluted to 1215 μL. In this case 9.8 μL is added per well and 0.2 μL compound is added in DMSO.
To prepare 1 mL of substrate solution, 955 μL reaction buffer, 40 μL PIP2, and 2.5 μL ATP are mixed. 10 μL of substrate is added to each well to start the reaction. […] The stop/detector mix is prepared by mixing 4 μL red detector and 1.6 μL or 2.0 μL GST-GRP with 1 mL stop buffer, which results in 10 nM probe and 70 nM GST-GRP. 20 μL of the stop/detector mix is added to each well to stop the reaction. The plates are read after 30-90 minutes keeping the red probe solutions dark. For the zero time point, stop/detector mix is added to the enzyme just before adding substrate. For an extra control, stop/detector mix is added to buffer (no enzyme) and substrate or to just buffer (no substrate). […] The recommended reaction has 0.06 μL per 20 μL (0.015 μg/20 μL) or 0.01125 μg/15 μL or 0.75 μg/mL.
Plates are read on machines with filters for TAMRA. The units are mP with no enzyme controls reading app 190-220 mP units. Fully active enzyme reduces fluorescence polarization down to 70-100 mP after 30 minutes. An active compound raises the mP values halfway to control or to 120-150 mP units.

The next experiment concerns MDA468. As to the kind of experiment: In vitro cell growth assay (MTS), MDA468. It is filed as cell-based. The conditions noted are these: 72 h, human breast line MDA468, three days after drug treatment, read-out: MDA IC50.
For a further experiment, the system named is LNCap. As to the kind of experiment: In vitro cell growth assay (MTS), LNCap. It is filed as cell-based. The conditions noted are these: LNCaP, 72 h, human prostate line, three days after drug treatment.
A further experiment has as its target mTOR (Homo sapiens, UniProt P42345). As to the kind of experiment: mTOR enzyme assay (DELFIA, purified FLAG-TOR, His6-S6K substrate). More on the design: FLAG. Particulars: 100 μM ATP, 2 hours. The experiment is classed as biochemical.
The target in a further experiment is PI3K-alpha (Homo sapiens, UniProt P42336). The experiment can be described thus: PI3K-alpha fluorescence polarization assay. The experiment is classed as biochemical. The conditions noted are these: 20 μM PIP2, 25 μM ATP; read-out: PI3Kα IC50. The method in brief: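 PIP2 (diC8) and ATP substrate with PI3K in 20 mM HEPES pH 7.5, 2 mM MgCl2, 0.05% CHAPS, 0.01% βME; 1% DMSO final; 30–60 min reaction. Stopped with EDTA plus GST-GRP (70 nM) and TAMRA probe (10 nM); FP (mP) read after 30–90 min, with no-enzyme controls.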
Chain of PI3K-alpha (P42336 whole entry, species assumed): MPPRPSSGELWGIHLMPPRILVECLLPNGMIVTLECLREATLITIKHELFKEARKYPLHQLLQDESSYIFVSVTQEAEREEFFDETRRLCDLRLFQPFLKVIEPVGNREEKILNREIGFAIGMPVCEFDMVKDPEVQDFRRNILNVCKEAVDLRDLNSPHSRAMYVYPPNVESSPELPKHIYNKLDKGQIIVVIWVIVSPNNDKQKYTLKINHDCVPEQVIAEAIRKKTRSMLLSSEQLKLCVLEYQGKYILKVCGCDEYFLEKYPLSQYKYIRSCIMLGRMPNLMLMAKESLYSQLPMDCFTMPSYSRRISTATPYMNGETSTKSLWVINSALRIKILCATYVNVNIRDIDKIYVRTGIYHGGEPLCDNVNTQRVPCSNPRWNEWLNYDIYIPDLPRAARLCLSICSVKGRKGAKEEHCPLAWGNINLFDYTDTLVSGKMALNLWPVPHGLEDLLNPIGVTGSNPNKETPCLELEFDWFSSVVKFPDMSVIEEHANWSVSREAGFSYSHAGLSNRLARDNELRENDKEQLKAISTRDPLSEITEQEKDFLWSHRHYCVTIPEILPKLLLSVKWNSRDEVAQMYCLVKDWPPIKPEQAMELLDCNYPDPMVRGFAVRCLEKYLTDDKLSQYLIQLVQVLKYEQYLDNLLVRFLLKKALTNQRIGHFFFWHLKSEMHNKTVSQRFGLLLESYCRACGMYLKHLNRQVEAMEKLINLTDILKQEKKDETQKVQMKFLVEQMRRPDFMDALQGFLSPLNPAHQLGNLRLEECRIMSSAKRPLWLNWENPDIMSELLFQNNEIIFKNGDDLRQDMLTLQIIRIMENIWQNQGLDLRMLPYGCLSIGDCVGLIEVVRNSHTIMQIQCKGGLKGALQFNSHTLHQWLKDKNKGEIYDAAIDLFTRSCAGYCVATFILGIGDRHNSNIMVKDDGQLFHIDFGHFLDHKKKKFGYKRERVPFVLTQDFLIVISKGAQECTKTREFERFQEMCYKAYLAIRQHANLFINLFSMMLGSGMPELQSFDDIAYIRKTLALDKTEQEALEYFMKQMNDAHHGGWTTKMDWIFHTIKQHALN
Chain of PI3K-alpha (P27986 whole entry partner, species assumed): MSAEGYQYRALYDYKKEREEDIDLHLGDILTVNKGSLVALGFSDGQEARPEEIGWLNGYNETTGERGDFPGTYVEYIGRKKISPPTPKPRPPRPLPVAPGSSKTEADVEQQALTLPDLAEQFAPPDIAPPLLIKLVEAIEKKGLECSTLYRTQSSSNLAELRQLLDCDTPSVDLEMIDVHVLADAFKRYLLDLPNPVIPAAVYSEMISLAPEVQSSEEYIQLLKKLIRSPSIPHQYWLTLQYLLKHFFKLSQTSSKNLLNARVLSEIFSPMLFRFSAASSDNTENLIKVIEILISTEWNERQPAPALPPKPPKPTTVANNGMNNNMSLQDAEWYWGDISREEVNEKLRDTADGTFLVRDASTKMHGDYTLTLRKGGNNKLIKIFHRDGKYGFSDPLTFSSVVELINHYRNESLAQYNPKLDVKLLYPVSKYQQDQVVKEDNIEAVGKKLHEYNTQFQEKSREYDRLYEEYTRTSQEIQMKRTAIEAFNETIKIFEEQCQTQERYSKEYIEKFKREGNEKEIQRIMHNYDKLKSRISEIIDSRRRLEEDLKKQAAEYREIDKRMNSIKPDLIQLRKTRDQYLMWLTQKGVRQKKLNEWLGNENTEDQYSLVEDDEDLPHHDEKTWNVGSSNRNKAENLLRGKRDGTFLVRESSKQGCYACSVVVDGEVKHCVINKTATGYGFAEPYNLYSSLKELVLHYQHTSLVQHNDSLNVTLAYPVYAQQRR
Background: Polarisation of emitted light reports the rotation of a fluorescent probe.

Chain of mTOR (P42345 1360-2549 limits assumed): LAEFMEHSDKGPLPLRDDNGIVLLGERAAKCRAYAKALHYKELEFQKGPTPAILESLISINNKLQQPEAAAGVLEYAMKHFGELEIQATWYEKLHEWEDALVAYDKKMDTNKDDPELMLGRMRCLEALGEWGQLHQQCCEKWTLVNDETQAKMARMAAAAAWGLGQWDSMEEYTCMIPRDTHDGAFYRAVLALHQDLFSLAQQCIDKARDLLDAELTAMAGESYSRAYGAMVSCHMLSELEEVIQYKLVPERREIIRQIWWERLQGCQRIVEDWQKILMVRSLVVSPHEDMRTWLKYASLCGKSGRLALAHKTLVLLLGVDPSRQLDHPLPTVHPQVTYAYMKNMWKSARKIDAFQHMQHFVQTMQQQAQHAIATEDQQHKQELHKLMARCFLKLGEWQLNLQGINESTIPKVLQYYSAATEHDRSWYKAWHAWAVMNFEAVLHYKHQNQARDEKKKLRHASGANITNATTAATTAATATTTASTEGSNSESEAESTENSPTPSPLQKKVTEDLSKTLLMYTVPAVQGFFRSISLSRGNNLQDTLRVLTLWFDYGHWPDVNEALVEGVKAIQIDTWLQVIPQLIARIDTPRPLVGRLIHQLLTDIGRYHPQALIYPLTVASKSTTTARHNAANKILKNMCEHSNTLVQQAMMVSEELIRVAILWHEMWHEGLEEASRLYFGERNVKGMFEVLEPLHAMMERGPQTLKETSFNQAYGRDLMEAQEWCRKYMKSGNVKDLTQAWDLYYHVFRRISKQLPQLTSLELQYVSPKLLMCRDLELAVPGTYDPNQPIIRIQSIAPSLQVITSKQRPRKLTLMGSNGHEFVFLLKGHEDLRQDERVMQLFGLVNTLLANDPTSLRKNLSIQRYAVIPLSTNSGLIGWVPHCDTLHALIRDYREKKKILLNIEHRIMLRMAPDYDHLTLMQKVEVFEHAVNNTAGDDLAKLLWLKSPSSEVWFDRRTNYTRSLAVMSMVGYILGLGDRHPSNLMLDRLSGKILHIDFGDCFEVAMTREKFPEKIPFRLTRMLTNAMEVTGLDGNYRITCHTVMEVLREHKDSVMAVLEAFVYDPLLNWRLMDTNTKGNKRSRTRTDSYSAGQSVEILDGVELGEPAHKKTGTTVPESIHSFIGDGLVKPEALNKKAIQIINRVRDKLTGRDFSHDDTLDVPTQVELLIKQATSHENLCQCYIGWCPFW
Chain of PI3K-gamma (P48736 whole entry, species assumed): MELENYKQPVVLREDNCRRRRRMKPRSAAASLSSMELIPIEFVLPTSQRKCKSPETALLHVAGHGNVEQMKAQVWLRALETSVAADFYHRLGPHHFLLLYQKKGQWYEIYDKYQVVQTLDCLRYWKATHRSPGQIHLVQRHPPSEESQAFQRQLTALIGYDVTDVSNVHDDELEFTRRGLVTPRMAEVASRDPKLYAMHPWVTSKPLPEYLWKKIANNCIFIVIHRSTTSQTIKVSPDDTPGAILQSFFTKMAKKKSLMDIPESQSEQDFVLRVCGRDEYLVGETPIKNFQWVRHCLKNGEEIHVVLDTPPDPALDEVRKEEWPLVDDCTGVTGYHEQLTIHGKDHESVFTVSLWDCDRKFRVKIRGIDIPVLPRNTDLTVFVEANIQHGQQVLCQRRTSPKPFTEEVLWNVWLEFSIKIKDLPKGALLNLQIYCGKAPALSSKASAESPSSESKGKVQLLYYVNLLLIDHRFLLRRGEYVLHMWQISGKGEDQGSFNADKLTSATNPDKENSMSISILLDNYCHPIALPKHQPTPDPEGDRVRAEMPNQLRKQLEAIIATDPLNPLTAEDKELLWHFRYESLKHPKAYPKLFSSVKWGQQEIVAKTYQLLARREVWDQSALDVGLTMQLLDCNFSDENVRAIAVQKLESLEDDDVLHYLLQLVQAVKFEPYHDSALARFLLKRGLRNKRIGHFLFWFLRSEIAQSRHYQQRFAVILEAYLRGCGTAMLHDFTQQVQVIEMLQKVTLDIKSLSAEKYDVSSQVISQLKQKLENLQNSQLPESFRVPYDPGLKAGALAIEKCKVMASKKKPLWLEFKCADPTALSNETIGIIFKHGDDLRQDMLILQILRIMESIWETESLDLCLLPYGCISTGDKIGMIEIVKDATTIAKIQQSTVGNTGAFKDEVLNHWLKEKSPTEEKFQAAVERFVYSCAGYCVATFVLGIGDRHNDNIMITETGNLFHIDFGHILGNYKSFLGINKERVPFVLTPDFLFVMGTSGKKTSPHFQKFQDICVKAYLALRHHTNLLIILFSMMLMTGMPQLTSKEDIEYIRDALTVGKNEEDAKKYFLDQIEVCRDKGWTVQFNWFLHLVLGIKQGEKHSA

As a reminder, the IC50 is the concentration needed to halve the response being measured. Regarding `CN1CCN(c2ccc(NC(=O)Nc3ccc(-c4nc(C5CCOCC5)cc(N5C6CCC5COC6)n4)cc3)cc2)CC1` [1-[4-(4-methylpiperazin-1-yl)phenyl]-3-{4-[4-(3-oxa-8-azabicyclo[3.2.1]oct-8-yl)-6-(tetrahydro-2H-pyran-4-yl)pyrimidin-2-yl]phenyl}urea], the concentration for half-maximal inhibition (IC50) on PI3K-gamma is 4730 nM; in the experiment with MDA468 it was 4 nM; with LNCap, not above 0.8 nM; on mTOR it was 0.855 nM; on PI3K-alpha, 1060 nM.

Turning to `CC(C)Nc1cc(N2C3CCC2COC3)nc(-c2ccc(NC(=O)Nc3cccnc3)cc2)n1` [1-(4-{4-[(1-methylethyl)amino]-6-(3-oxa-8-azabicyclo[3.2.1]oct-8-yl)pyrimidin-2-yl}phenyl)-3-pyridin-3-ylurea], the IC50 on PI3K-gamma is not below 10000 nM; in the experiment with MDA468, 100 nM; in the experiment with LNCap, 45 nM; on mTOR it was 1.1 nM; on PI3K-alpha, 4350 nM.

Take `CN1CCN(c2ccc(NC(=O)Nc3ccc(-c4nc(C5CCOCC5)cc(N5C6CCC5COC6)n4)cc3)cn2)CC1` [1-[6-(4-methylpiperazin-1-yl)pyridin-3-yl]-3-{4-[4-(3-oxa-8-azabicyclo[3.2.1]oct-8-yl)-6-(tetrahydro-2H-pyran-4-yl)pyrimidin-2-yl]phenyl}urea]: the IC50 is not below 10000 nM at PI3K-gamma; 4 nM in the experiment on MDA468; not above 0.8 nM with LNCap; 1.22 nM against mTOR; 2590 nM on PI3K-alpha.

For `C[C@@H]1COCCN1c1cc(N2C3CCC2COC3)nc(-c2ccc(NC(=O)Nc3ccc(OCCN(C)C)cc3)cc2)n1` [1-{4-[2-(dimethylamino)ethoxy]phenyl}-3-(4-{4-[(3R)-3-methylmorpholin-4-yl]-6-(3-oxa-8-azabicyclo[3.2.1]oct-8-yl)pyrimidin-2-yl}phenyl)urea], the IC50 at PI3K-gamma is 6470 nM; with MDA468, 13 nM; in the experiment on LNCap, 4 nM; on mTOR it was 1.55 nM; at PI3K-alpha, 853 nM.

Take `CN1CCN(C(=O)c2ccc(NC(=O)Nc3ccc(-c4nc(C5CCOCC5)cc(N5C6CCC5COC6)n4)cc3)cc2)CC1` [1-{4-[(4-methylpiperazin-1-yl)carbonyl]phenyl}-3-{4-[4-(3-oxa-8-azabicyclo[3.2.1]oct-8-yl)-6-(tetrahydro-2H-pyran-4-yl)pyrimidin-2-yl]phenyl}urea]: the IC50 was 3050 nM at PI3K-gamma; 0.8 nM with MDA468; not above 0.8 nM in the experiment on LNCap; 0.44 nM against mTOR; 230 nM at PI3K-alpha.

On to `CN1CCN(c2ccc(NC(=O)Nc3ccc(-c4nc(NC5CCOCC5)cc(N5C6CCC5COC6)n4)cc3)cc2)CC1` [1-[4-(4-methylpiperazin-1-yl)phenyl]-3-{4-[4-(3-oxa-8-azabicyclo[3.2.1]oct-8-yl)-6-(tetrahydro-2H-pyran-4-ylamino)pyrimidin-2-yl]phenyl}urea], for which the half-inhibitory concentration (IC50) at PI3K-gamma worked out at 9230 nM; with MDA468, 10 nM; in the experiment with LNCap, 7 nM; on mTOR, 7.5 nM; at PI3K-alpha, 2260 nM.

Turning to `CC(C)Nc1cc(N2C3COCC2COC3)nc(-c2ccc(NC(=O)Nc3ccc(CN4CCN(C)CC4)cc3)cc2)n1` [1-{4-[4-(3,7-dioxa-9-azabicyclo[3.3.1]non-9-yl)-6-(isopropylamino)pyrimidin-2-yl]phenyl}-3-{4-[(4-methylpiperazin-1-yl)methyl]phenyl}urea], the IC50 stood at 6870 nM on PI3K-gamma; 1000 nM in the experiment with MDA468; 600 nM in the experiment with LNCap; 17.5 nM against mTOR; 3160 nM at PI3K-alpha.

Regarding `CC(C)Nc1cc(N2C3CCC2COC3)nc(-c2ccc(NC(=O)Nc3ccc(CN(C)C)cc3)cc2)n1` [1-{4-[(dimethylamino)methyl]phenyl}-3-(4-{4-[(1-methylethyl)amino]-6-(3-oxa-8-azabicyclo[3.2.1]oct-8-yl)pyrimidin-2-yl}phenyl)urea], the IC50 on PI3K-gamma was 3880 nM; with MDA468, 120 nM; with LNCap, 120 nM; against mTOR it was 2.65 nM; at PI3K-alpha, 1190 nM.

In the case of `O=C(Nc1ccc(-c2nc(N3C4CCC3COC4)cc(N3C4CCC3COC4)n2)cc1)Nc1cccnc1` [1-[4-(4,6-di-3-oxa-8-azabicyclo[3.2.1]oct-8-ylpyrimidin-2-yl)phenyl]-3-pyridin-3-ylurea], the IC50 on PI3K-gamma came out at 4490 nM; with MDA468, 5 nM; in the experiment with LNCap, 0.8 nM; against mTOR it was 0.58 nM; at PI3K-alpha it was 1130 nM.

On to `C[C@@H]1COCCN1c1cc(N2C3CCC2COC3)nc(-c2ccc(NC(=O)Nc3ccc(C(=O)N(C)C)cc3)cc2)n1` [N,N-dimethyl-4-{[(4-{4-[(3R)-3-methylmorpholin-4-yl]-6-(3-oxa-8-azabicyclo[3.2.1]oct-8-yl)pyrimidin-2-yl}phenyl)carbamoyl]amino}benzamide], for which the concentration for half-maximal inhibition (IC50) on PI3K-gamma is 1640 nM; in the experiment on MDA468 it was 0.8 nM; in the experiment with LNCap, not above 0.8 nM; on mTOR, 0.44 nM; at PI3K-alpha, 108 nM.

For `O=C(Nc1ccc(-c2nc(N3C4CCC3COC4)c(Cl)c(N3C4CCC3COC4)n2)cc1)Nc1cccnc1` [1-[4-(5-chloro-4,6-di-3-oxa-8-azabicyclo[3.2.1]oct-8-ylpyrimidin-2-yl)phenyl]-3-pyridin-3-ylurea], the IC50 at PI3K-gamma was 932 nM; with MDA468 it was 220 nM; in the experiment with LNCap it was 48 nM; against mTOR, 0.655 nM; at PI3K-alpha, 922 nM.

Take `CC(C)N1CCN(C(=O)c2ccc(NC(=O)Nc3ccc(-c4nc(N5C6CCC5COC6)cc(N5CCOC[C@H]5C)n4)cc3)cc2)CC1` [1-(4-{[4-(1-methylethyl)piperazin-1-yl]carbonyl}phenyl)-3-(4-{4-[(3R)-3-methylmorpholin-4-yl]-6-(3-oxa-8-azabicyclo[3.2.1]oct-8-yl)pyrimidin-2-yl}phenyl)urea]: the IC50 was 1200 nM at PI3K-gamma; 0.8 nM in the experiment on MDA468; not above 0.8 nM in the experiment on LNCap; 0.6 nM against mTOR; 123 nM at PI3K-alpha.

`CC(C)Nc1cc(N2C3COCC2COC3)nc(-c2ccc(NC(=O)Nc3ccncc3)cc2)n1` [1-{4-[4-(3,7-dioxa-9-azabicyclo[3.3.1]non-9-yl)-6-(isopropylamino)pyrimidin-2-yl]phenyl}-3-pyridin-4-ylurea]: the concentration for half-maximal inhibition (IC50) at PI3K-gamma came out at 9240 nM; in the experiment on MDA468, 400 nM; in the experiment on LNCap, 280 nM; on mTOR it was 5 nM; at PI3K-alpha it was 1520 nM.

Take `CNC(=O)Nc1ccc(-c2nc(CN(C)C)cc(N3C4CCC3COC4)n2)cc1` [1-(4-{4-[(dimethylamino)methyl]-6-(3-oxa-8-azabicyclo[3.2.1]oct-8-yl)pyrimidin-2-yl}phenyl)-3-methylurea]: the concentration for half-maximal inhibition (IC50) on PI3K-gamma was more than 10000 nM; with MDA468, 7000 nM; in the experiment on LNCap, 3600 nM; on mTOR it was 77 nM; at PI3K-alpha, 8000 nM.

For `CCNC(=O)Nc1ccc(-c2nc(CN(C)C)cc(N3C4CCC3COC4)n2)cc1` [1-(4-{4-[(dimethylamino)methyl]-6-(3-oxa-8-azabicyclo[3.2.1]oct-8-yl)pyrimidin-2-yl}phenyl)-3-ethylurea], the IC50 on PI3K-gamma was determined as 12600 nM; in the experiment on MDA468, 3000 nM; with LNCap it was 1100 nM; against mTOR, 40 nM; on PI3K-alpha, 6240 nM.
